Results: paper PMC5861052, “Uptake and accumulation of Microcystin-LR based on exposure through drinking water: An animal model assessing the human health risk” (Scientific Reports, 2018)
Where “and” joins values, the source holds several entries; their conditions need not be identical. Equal entries are not always repeated.

Assays:
[1] = Free MC-LR in porcine tissues, experiment 2 (high dose), UPLC-MS/MS; details: pig, in vivo, po
Procedure: (§1) This study was performed as described previously using twelve male Duroc pigs, six control and six treated pigs. Housing, diet and treatment were as described previously with the following modifications:
(§2) Animals were subjected to a fourteen-day acclimatization period prior to assignment to control or treated groups. Over the study period, each animal from the treatment group received a daily dose of 2 µg toxin/kg body weight MC-LR by oral gavage, 50 times the provisional WHO TDI, with the average dose for the six treated animals outlined in Table 4
(§3) , with the MC-LR for dosing prepared as described above. At day 40 (approximately 5 weeks) treated and control animals were euthanized. Sample collection and storage was as outlined for experiment 1.
Tissue samples (see Supplementary Information online) (100 mg) were spiked with 10 μL of the NOD (IS) at 0.5 μg/mL and extracted by addition of 1.5 mL of 80% aqueous MeOH (v/v) (0.5% acetic acid v/v), vortex mixed briefly and sonicated at 35–40 °C for 45 min before centrifugation at 16 000 g for 15 min. […]
(§4) In order to quantify any toxins identified, a six-point extracted matrix-matched calibration curve in the range 0.001–0.1 μg/g dw was prepared using pooled control samples of the relevant tissue. […]

[2] = Free MC-LR in porcine serum, experiment 2 (high dose), UPLC-MS/MS; details: pig, in vivo, po
Procedure: as §1, §2
, with the MC-LR for dosing prepared as described above. At day 40 (approximately 5 weeks) treated and control animals were euthanized. Sample collection and storage was as outlined for experiment 1. […]
Analysis was performed using an ACQUITY UPLC i-Class system coupled to a Xevo TQ-S (triple quadrupole MS/MS) Mass Spectrometer (Waters, Manchester, UK). Detection and quantification was achieved using targeted analysis using Multiple Reaction Monitoring (MRM) and operated in ESI^+ mode. Analyte precursor ions were identified as [M + H]^+ for both MC-LR and NOD (IS) with the quantifying (Q) and qualifying (q) ions used as follows:
To quantify any MC-LR detected, a seven point extracted matrix matched calibration curve in the range 0.2-100 ng/mL serum was prepared using the ‘negative’ porcine serum. […]

[3] = Bound MC-LR (MMPB) in porcine liver by Lemieux oxidation, experiment 1; details: pig, in vivo, po
Description: Following the acclimatization period of seven days, eight healthy pigs were selected randomly for the control group and the remaining eight healthy pigs assigned to the treatment group. Before treatment, animals were examined by a veterinarian to confirm clinical health and then weighed, with the weight and identification of animals in each group recorded. Over the study period (13 weeks), each animal from the treatment group received a low dose of MC-LR daily by oral gavage. The dose administered was 0.04 µg toxin/kg body weight, the provisional World Health Organization Tolerable Daily Intake (WHO TDI), based on the NOAEL derived from the animal experiment conducted by Fawell et al. (1999), with the average dose for the eight treated animals outlined in Table 3. […]
Porcine tissue samples (50 mg) were weighed into 50 mL round bottomed flasks with the conversion and subsequent enrichment of MMPB carried out as outlined in ‘Analysis of conjugated MC-LR in porcine tissue’ (see Supplementary Information online). Samples were initially screened for MMPB, with any samples found to contain toxin quantified by use of a six point extracted matrix matched calibration curve in the range 0.010–0.25 µg/g dw using pooled control tissue of the relevant tissue, with calibrant levels achieved by spiking with the MMPB standard at a concentration of either 0.5 or 0.05 µg/mL after pH adjustment. […]

[4] = mouse, in vivo, iv; cited from earlier work
Procedure: […]. In another experiment conducted by Robinson et al. (1991) using radiolabelled MC-LR to track its distribution in mice, levels of radiolabelled MC-LR peaked in the liver after only 30 min[52], although in this case the mice were injected intravenously via the tail vein rather than by oral g ...

[5] = Parent ion scan of Adda fragment (m/z 135) in porcine serum; details: pig, in vivo
Procedure: With MC-LR and its congeners, as well as any potential metabolites of MC-LR having in common the shared Adda group ((2S, 3S, 8S, 9S)-3-amino-9-methoxy-2, 6, 8-trimethyl-10-phenyldeca-4(E), 6(E)-dienoic acid) (Fig. 1)[8], serum samples were analysed for parent ions of Adda, with this fragment having an m/z of 135. This was optimised using the MC-LR standard and indicated a peak at the same retention time as when analysed in MRM mode, with the retention window extended to allow identification of any potential MC-LR metabolites.
A selection of serum sample time points from experiment (1) were chosen (n = 32), with; t = 14, t = 42, t = 70 and t = 98 correlating to the start, one, two and three months of treatment for each animal, as well as serum from all time points (n = 36) for each animal from experiment (2).

[6] = in vivo, cited from earlier work
Procedure: Looking at the study by Tencalla et al. (1997) in which rainbow trout were dosed with MC-LR also via oral gavage, they estimated the uptake of MC-LR into blood to be approximately 4.4% of the dose administered of 5700 µg MC-LR/kg bw[51]. Based on the findings reported by Tencalla et al. and taking the average bodyweight of the six animals in the final week of dosing in experiment (2) of our study, the average dose administered to the six animals equates to 96 µg of MC-LR per day for the last week. […].

[7] = format: in vivo; details: pig
Procedure: as §1, §2, §3
Porcine tissue samples (50 mg) were weighed into 50 mL round bottomed flasks with the conversion and subsequent enrichment of MMPB carried out as outlined in ‘Analysis of conjugated MC-LR in porcine tissue’ (see Supplementary Information online). Samples were initially screened for MMPB, with any samples found to contain toxin quantified by use of a six point extracted matrix matched calibration curve in the range 0.010–0.25 µg/g dw using pooled control tissue of the relevant tissue, with calibrant levels achieved by spiking with the MMPB standard at a concentration of either 0.5 or 0.05 µg/mL after pH adjustment.
Conversion of any bound MC-LR and subsequent extraction was performed according to a modified method derived from Neffling et al. (2010) and developed using 50 mg aliquots of lyophilised homogenised, pooled porcine tissue from the control animals. 50 mg of tissue was weighed into a 50 mL round bottomed flask and 5 mL of oxidation solution at a concentration of 0.1 M was added, comprising both potassium permanganate (KMnO4) and sodium (meta) periodate (NaIO4) at 0.2 M mixed 1:1 v/v. The mixture was stirred at room temperature for 2 h whereby the colour of the solution turned from purple (colour of KMnO4) to red/brown (colour of the reduced product MnO2). A further 4 mL oxidation solution at 0.1 M was added turning the solution back to purple. The reaction was immediately quenched by addition of 1 mL sodium bisulphite solution (40% v/v). Following this, samples were transferred to 15 mL tubes and 10% sulphuric acid was added drop wise until the pH was acidic (~ 2). Samples were then centrifuged at 4 500 rpm for 15 min and the supernatant removed and loaded directly onto SPE cartridges.
Sample enrichment and clean-up was carried out using OASIS PRiME HLB cartridges, with samples loaded onto the cartridges, allowed to drip through under gravity then washed with water and 20% aqueous methanol (v/v). Bound MMPB was eluted into clean glass tubes using 2 x 1.5 mL 80% aqueous methanol (v/v) and the eluents evaporated to dryness under a gentle stream of nitrogen using a turbovap set at 45 °C. Samples were reconstituted in 100 µL 80% aqueous MeOH (v/v) and transferred to a micro vial for analysis.
Analysis of MMPB was performed as described above in ‘Analysis of free MC-LR and MC-LR-GSH in porcine tissues’. Detection and quantification was achieved using MRM, with MMPB seen as the [M + H]^+ ion and the transitions optimised manually as follows:
Separation was achieved using the same column and mobile phases as detailed above in ‘Analysis of free MC-LR in porcine serum’ with the flow rate set at 0.4 ml/min. The gradient used to achieve separation was as described above with the ACN initially held at 10%, then returned to 10% prior to the next injection.

[8] = Free MC-LR in porcine tissues, experiment 1 (low dose), UPLC-MS/MS; details: pig, in vivo, po
Description: Following the acclimatization period of seven days, eight healthy pigs were selected randomly for the control group and the remaining eight healthy pigs assigned to the treatment group. Before treatment, animals were examined by a veterinarian to confirm clinical health and then weighed, with the weight and identification of animals in each group recorded. Over the study period (13 weeks), each animal from the treatment group received a low dose of MC-LR daily by oral gavage. The dose administered was 0.04 µg toxin/kg body weight, the provisional World Health Organization Tolerable Daily Intake (WHO TDI), based on the NOAEL derived from the animal experiment conducted by Fawell et al. (1999), with the average dose for the eight treated animals outlined in Table 3. Briefly, a 1 mg/mL solution of MC-LR was prepared by the addition of 250 µL of ethanol followed by 750 µL water. The appropriate dilutions were then performed depending on the weight of the animal to ensure the correct dose was administered in 5 mL of water.
Serum was collected weekly, starting at day -7 from treated and control animals as the pre-bleeds. […]
as §4

[9] = Free MC-LR in porcine serum, experiment 1 (low dose), UPLC-MS/MS; details: pig, in vivo, po
Procedure: The animal studies were performed under licence (PPL 2755 - Chemical contaminants in food producing animals) issued by the Department of Health, Social Services and Public Safety in Northern Ireland (NI) in accordance with the Animal (Scientific Procedures) Act (1986), and under the approval of the Agri-Food and Biosciences Institute (AFBI) Animal Welfare and Ethical Review Body (AWERB) and associated EU Directive 2010/63/EU for animal experiments. The study was performed on behalf of Queen’s University Belfast (QUB) by the Veterinary Sciences Division, Agri-Food and Biosciences Institute, Belfast, Northern Ireland. […]
Following the acclimatization period of seven days, eight healthy pigs were selected randomly for the control group and the remaining eight healthy pigs assigned to the treatment group. Before treatment, animals were examined by a veterinarian to confirm clinical health and then weighed, with the weight and identification of animals in each group recorded. […]
Analysis was performed using an ACQUITY UPLC i-Class system coupled to a Xevo TQ-S (triple quadrupole MS/MS) Mass Spectrometer (Waters, Manchester, UK). Detection and quantification was achieved using targeted analysis using Multiple Reaction Monitoring (MRM) and operated in ESI^+ mode. […]

Row | Compound | free MC-LR in all other tissue samples (liver, kidney, small and large intestine, spleen, brain) [1] | free MC-LR in serum [2] | bound MC-LR (MMPB) in liver tissue [3] | time at which levels of radiolabelled MC-LR peaked in the liver [4] | peaks in parent ion scan of Adda fragment m/z 135 in serum (free MC-LR or MC-LR metabolites) [5] | uptake of MC-LR into blood as percentage of dose administered ([6]; po) | uptake of MC-LR into the liver ([6]; po) | half-life in the blood [6] | time after which the liver indicated the presence of MC-LR [6] | time of maximum levels in the liver after exposure [6] | MC-LR present in liver ([7]; in vivo) | Uptake of MC-LR by liver as percentage of the dose administered ([7]; in vivo) | average amount of bound MC-LR accumulated in liver ([7]; in vivo) | average uptake of MC-LR by liver as percentage of total dose administered ([7]; in vivo) | estimated bound MC-LR in liver (average) ([7]; in vivo) | free MC-LR in liver, kidney, large and small intestine tissues [8] | free MC-LR in serum [9] | concentration of MMPB detected in liver (average estimated value) ([7]; livers of T2, T4 and T5, MC-LR oral gavage 2 µg/kg bw daily, Lemieux oxidation, dry weight)
1 | Microcystin-LR [MC-LR] | free of MC-LR residues | negative | negative | 30 min | negative | approximately 4.4% | 1.7% | 3.3 h | 1 h | 3 h | 23.1 µg and 21.9 µg and 34.1 µg | 1.1% and 0.8% and 1.5% | 26.4 ± 5.5 µg | 1.1% | 23.2 ng/g ww | none of the tissues contained any trace | < 0.03 ng/mL | 
2 | COC(Cc1ccccc1)C(C)C(=O)O (stereo not drawn) [MMPB, 2-methyl-3-methoxy-4-phenylbutyric acid] |  |  |  |  |  |  |  |  |  |  |  |  |  |  |  |  |  | 14.4 ng/g dw
